Our source for the EC50 values is patent US10934282B2, “Heteroaromatic modulators of the retinoid-related orphan receptor gamma” (LEO PHARMA A/S, priority 2016, dated 2021).

Structures can show the parent of a compound that is named as a salt.

The subject of experiment [1] is IL-17A in Human peripheral mononuclear cells. Nature of the experiment: Human PBMC IL-17A assay. The experiment is classed as cell-based. The settings on record: 72 h, EC50, antiCD3/antiCD28-coated beads, 3 days, alpha-LISA. The method in brief: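 Cryopreserved human PBMC (130,000/well) stimulated with anti-CD3/anti-CD28-coated beads (1 cell per bead) in RPMI-1640 with 10% bovine calf serum, compounds at 0.1% DMSO, for 3 days. Supernatant IL-17A measured by AlphaLISA, viability by PrestoBlue; EC50 from 4-parameter non-linear regression.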

Experiment [2] has as its system IL-17A levels in human peripheral blood. As to the kind of experiment: tissue or blood. The experiment is classed as cell-based. As to conditions: 72 h, read-out: Human Whole blood IL-17A (nM).
Experiment [3] has as its target T1, human RORgt nuclear receptor (RORgT ligand binding domain protein) (Homo sapiens, UniProt P51449).
T1 construct: purchased Proteros Biostructures GmbH
T1 sequence (P51449 with tags, fused parts or gaps): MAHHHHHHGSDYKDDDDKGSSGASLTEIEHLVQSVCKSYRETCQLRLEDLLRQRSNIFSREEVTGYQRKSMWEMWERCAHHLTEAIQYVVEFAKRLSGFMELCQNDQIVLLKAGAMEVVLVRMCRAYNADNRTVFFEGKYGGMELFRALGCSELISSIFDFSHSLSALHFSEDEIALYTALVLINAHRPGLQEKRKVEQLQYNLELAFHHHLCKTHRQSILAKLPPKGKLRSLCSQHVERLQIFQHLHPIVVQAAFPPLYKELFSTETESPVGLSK
Nature of the experiment: ROR-gamma binding assay (Scintillation Proximity Assay, displacement of [3H]-25-hydroxycholesterol). The settings on record: EC50, SPA, 15 nM [3H]-25-Hydroxycholesterol, RORgT LBD 12 nM. The method in brief: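 SPA competition of compound against 15 nM [3H]-25-hydroxycholesterol for His/FLAG-tagged human RORγt LBD (12 nM) on His-tag PVT beads, in 50 mM HEPES pH 7.4, 150 mM NaCl, 5 mM MgCl2, 0.1% BSA, 0.5% DMSO. 30 min preincubation, then ≥4 h at room temperature in darkness; EC50 by four-parameter fit.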
(SPA uses beads or plates that emit light when radiolabelled molecules are held near them.)

Take `Cc1cc(CN2CCN(C(=O)OC(C)C)[C@@H](C)C2)c(C)c(Nc2nnc([C@H]3C[C@@H](O)C3)o2)c1` [Example 37, isopropyl (2S)-4-[[3-[[5-(3-hydroxycyclobutyl)-1,3,4-oxadiazol-2-yl]amino]-2,5-dimethyl-phenyl]methyl]-2-methyl-piperazine-1-carboxylate]: the EC50 came out at 43.7 nM in experiment [1], 426 nM in experiment [2] and 40.8 nM in experiment [3].

Regarding `CC[C@H](N)c1nnc(Nc2cc(Cl)cc(CN3CCN(C(=O)OC(C)C)[C@@H](C)C3)c2C)o1` [Example 38, isopropyl (2S)-4-[[3-[[5-[(1S)-1-aminopropyl]-1,3,4-oxadiazol-2-yl]amino]-5-chloro-2-methyl-phenyl]methyl]-2-methyl-piperazine-1-carboxylate], the EC50 in experiment [1] is 58.5 nM; in experiment [2], 403 nM; in experiment [3] it was 49.7 nM.

Turning to `Cc1c(CN2CCN(C(=O)OC(C)C)[C@@H](C)C2)cc(Cl)cc1Nc1nnc([C@@H](C)O)o1` [Example 39, isopropyl (2S)-4-[[5-chloro-3-[[5-[(1R)-1-hydroxyethyl]-1,3,4-oxadiazol-2-yl]amino]-2-methyl-phenyl]methyl]-2-methyl-piperazine-1-carboxylate], the EC50 is 38.2 nM in experiment [1], 377 nM in experiment [2] and 29.2 nM in experiment [3].

`Cc1c(CN2CCN(C(=O)OC(C)C)[C@@H](C)C2)cc(Cl)cc1Nc1nnc(C2COC2)o1` [Example 40, isopropyl (2S)-4-[[5-chloro-2-methyl-3-[[5-(oxetan-3-yl)-1,3,4-oxadiazol-2-yl]amino]phenyl]methyl]-2-methyl-piperazine-1-carboxylate]: the EC50 in experiment [1] was determined as 212 nM; in experiment [2] it was 365 nM; in experiment [3] it was 21.2 nM.

Turning to `Cc1cc(CN2CCN(C(=O)OC(C)C)[C@@H](C)C2)c(C)c(Nc2nnc([C@@H](N)[C@@H](C)O)o2)c1` [Example 41, isopropyl (2S)-4-[[3-[[5-[(1S,2R)-1-amino-2-hydroxy-propyl]-1,3,4-oxadiazol-2-yl]amino]-2,5-dimethyl-phenyl]methyl]-2-methyl-piperazine-1-carboxylate], the figures for the EC50 in experiment [1], in experiment [2] and in experiment [3] were 215 nM, 373 nM and 91.1 nM, respectively.

With `Cc1cc(CN2CCN(C(=O)OC(C)C)[C@@H](C)C2)c(C)c(Nc2nnc(CC#N)o2)c1` [Example 42, isopropyl (2S)-4-[[3-[[5-(cyanomethyl)-1,3,4-oxadiazol-2-yl]amino]-2,5-dimethyl-phenyl]methyl]-2-methyl-piperazine-1-carboxylate], the EC50 was 34.2 nM in experiment [1], 359 nM in experiment [2] and 48 nM in experiment [3].

Take `Cc1c(CN2CCN(C(=O)OC(C)C)[C@@H](C)C2)cc(C(F)F)cc1Nc1nnc([C@H](C)O)o1` [Example 43, isopropyl (2S)-4-[[5-(difluoromethyl)-3-[[5-[(1S)-1-hydroxyethyl]-1,3,4-oxadiazol-2-yl]amino]-2-methyl-phenyl]methyl]-2-methyl-piperazine-1-carboxylate]: the EC50 in experiment [1] came out at 63.5 nM; in experiment [2] it was 332 nM; in experiment [3], 53.9 nM.

On to `Cc1c(CN2CCN(C(=O)OC(C)C)[C@@H](C)C2)cc(Cl)cc1Nc1nnc(C2CCCOC2)o1` (stereo partly drawn) [Example 44, isopropyl (2S)-4-[[5-chloro-2-methyl-3-[(5-tetrahydropyran-3-yl-1,3,4-oxadiazol-2-yl)amino]phenyl]methyl]-2-methyl-piperazine-1-carboxylate], for which the EC50 in experiment [1] amounted to 26 nM; in experiment [2], 330 nM; in experiment [3] it was 22.7 nM.

As for `Cc1c(CN2CCN(C(=O)OC(C)C)[C@@H](C)C2)cc(Cl)cc1Nc1nnc(C2(O)CC2)o1` [Example 45, isopropyl (2S)-4-[[5-chloro-3-[[5-(1-hydroxycyclopropyl)-1,3,4-oxadiazol-2-yl]amino]-2-methyl-phenyl]methyl]-2-methyl-piperazine-1-carboxylate], the EC50 is 39.9 nM in experiment [1], 330 nM in experiment [2] and 42 nM in experiment [3].

As to `Cc1c(CN2CCN(C(=O)OC(C)C)[C@@H](C)C2)cc(Cl)cc1Nc1nnc(C2(CO)CC2)o1` [Example 46, isopropyl (2S)-4-[[5-chloro-3-[[5-[1-(hydroxymethyl)cyclopropyl]-1,3,4-oxadiazol-2-yl]amino]-2-methyl-phenyl]methyl]-2-methyl-piperazine-1-carboxylate], the results for the EC50 in experiment [1], in experiment [2] and in experiment [3] were 103 nM, 322 nM and 37.1 nM, respectively.

For the compound `Cc1c(CN2CCN(C(=O)OC(C)C)[C@@H](C)C2)cc(Cl)cc1Nc1nnc(C(O)C(F)(F)F)o1` (stereo partly drawn) [Example 47, isopropyl (2S)-4-[[5-chloro-2-methyl-3-[[5-(2,2,2-trifluoro-1-hydroxy-ethyl)-1,3,4-oxadiazol-2-yl]amino]phenyl]methyl]-2-methyl-piperazine-1-carboxylate], the EC50 in experiment [1] was 63.2 nM; in experiment [2], 307 nM; in experiment [3], 26.6 nM.

With `Cc1c(CN2CCN(C(=O)OC(C)C)[C@@H](C)C2)cc(Cl)cc1Nc1nnc(C2CCNC2=O)o1` (stereo partly drawn) [Example 48, isopropyl (2S)-4-[[5-chloro-2-methyl-3-[[5-(2-oxopyrrolidin-3-yl)-1,3,4-oxadiazol-2-yl]amino]phenyl]methyl]-2-methyl-piperazine-1-carboxylate], the EC50 in experiment [1] came to 191 nM; in experiment [2], 296 nM; in experiment [3], 37.2 nM.

For the compound `Cc1cc(CN2CCN(C(=O)OC(C)C)[C@@H](C)C2)c(C)c(Nc2nnc([C@H](C)N)o2)c1` [Example 49, isopropyl (2S)-4-[[3-[[5-[(1S)-1-aminoethyl]-1,3,4-oxadiazol-2-yl]amino]-2,5-dimethyl-phenyl]methyl]-2-methyl-piperazine-1-carboxylate], the EC50 in experiment [1] turned out to be 218 nM; in experiment [2] it was 275 nM; in experiment [3], 90.5 nM.

As for `Cc1c(CN2CCN(C(=O)OC(C)C)[C@@H](C)C2)cc(C(F)F)cc1Nc1nnc([C@@H](C)O)o1` [Example 50, isopropyl (2S)-4-[[5-(difluoromethyl)-3-[[5-[(1R)-1-hydroxyethyl]-1,3,4-oxadiazol-2-yl]amino]-2-methyl-phenyl]methyl]-2-methyl-piperazine-1-carboxylate], the values for the EC50 in experiment [1], in experiment [2] and in experiment [3] were 86.5 nM, 272 nM and 31.6 nM, respectively.

Regarding `Cc1cc(CN2CCN(C(=O)OC(C)C)[C@@H](C)C2)c(C)c(Nc2nnc(C3CNC(=O)C3)o2)c1` (stereo partly drawn) [Example 51, isopropyl (2S)-4-[[2,5-dimethyl-3-[[5-(5-oxopyrrolidin-3-yl)-1,3,4-oxadiazol-2-yl]amino]phenyl]methyl]-2-methyl-piperazine-1-carboxylate], the EC50 in experiment [1] turned out to be 216 nM; in experiment [2] it was 266 nM; in experiment [3], 64.4 nM.

Regarding `Cc1cc(CN2CCN(C(=O)OC(C)C)[C@@H](C)C2)c(C)c(Nc2nnc([C@@H]3CNC(=O)O3)o2)c1` [Example 52, isopropyl (2S)-4-[[2,5-dimethyl-3-[[5-[(5S)-2-oxooxazolidin-5-yl]-1,3,4-oxadiazol-2-yl]amino]phenyl]methyl]-2-methyl-piperazine-1-carboxylate], the EC50 in experiment [1] came out at 134 nM; in experiment [2], 256 nM; in experiment [3], 42.1 nM.

As to `Cc1c(CN2CCN(C(=O)OC(C)C)[C@@H](C)C2)cc(Cl)cc1Nc1nnc([C@@H]2CC(=O)N2)o1` [Example 53, isopropyl (2S)-4-[[5-chloro-2-methyl-3-[[5-[(2S)-4-oxoazetidin-2-yl]-1,3,4-oxadiazol-2-yl]amino]phenyl]methyl]-2-methyl-piperazine-1-carboxylate], the EC50 in experiment [1] turned out to be 93.9 nM; in experiment [2] it was 247 nM; in experiment [3], 68.2 nM.

On to `Cc1cc(CN2CCN(C(=O)OC(C)C)[C@@H](C)C2)c(C)c(Nc2nnc(-c3nonc3C)o2)c1` [Example 54, isopropyl (2S)-4-[[2,5-dimethyl-3-[[5-(4-methyl-1,2,5-oxadiazol-3-yl)-1,3,4-oxadiazol-2-yl]amino]phenyl]methyl]-2-methyl-piperazine-1-carboxylate], for which the EC50 came out at 28.1 nM in experiment [1], 176 nM in experiment [2] and 16.3 nM in experiment [3].

For the compound `Cc1cc(CN2CCN(C(=O)OC(C)C)[C@@H](C)C2)c(C)c(Nc2nnc([C@@H]3COCCN3)o2)c1` [Example 55, isopropyl (2S)-4-[[2,5-dimethyl-3-[[5-[(3S)-morpholin-3-yl]-1,3,4-oxadiazol-2-yl]amino]phenyl]methyl]-2-methyl-piperazine-1-carboxylate dihydrochloride], the EC50 was found to be 62.3 nM in experiment [1], 36.8 nM in experiment [2] and 39 nM in experiment [3].

As for `Cc1cc(CN2CCN(C(=O)OC(C)C)[C@@H](C)C2)c(C)c(Nc2nnc([C@@H](C)O)o2)c1` [Example 56, isopropyl (2S)-4-[[3-[[5-[(1R)-1-hydroxyethyl]-1,3,4-oxadiazol-2-yl]amino]-2,5-dimethyl-phenyl]methyl]-2-methyl-piperazine-1-carboxylate], the EC50 is 51.9 nM in experiment [1], 92.2 nM in experiment [2] and 36.5 nM in experiment [3].
